Assays:
[1] = tested on: cardiomyocytes induced from human iPS cells (253G1 strain); assay: Proliferation culture of cardiomyocytes with WNT signal activator CHIR99021, serial subculture (Example 2); assay type: cell-based; conditions: for cTnT positive rate (cardiomyocyte purity): CHIR99021 added (1 to 5 μM); for proliferation rate compared with no CHIR99021: CHIR99021 1 to 5 μM; for total cardiomyocyte proliferation: 2.0×10^5 cells/cm^2
Experimental: A “ratio of multinucleated cardiomyocytes” was determined from a percentage of multinucleated cardiomyocytes in 10,000 cardiomyocytes.
Thereafter, the culture medium was replaced every 3 to 4 days, and culturing was performed for 2 weeks (a first serial subculture).
For the cells obtained after each serial subculture, “cardiomyocyte purity”, “cardiomyocyte proliferation rate”, “ratio of multinucleated cardiomyocytes”, and “average maximum length of multinucleated cardiomyocytes” were determined according to the same procedure as in Example 1.

[2] = tested on: cardiomyocyte population (third serial subculture); assay: Drug responsiveness test by calcium imaging; assay type: cell-based, human; conditions: terfenadine 300 to 900 nM; calcium signal 10 minutes after addition

| early afterdepolarization (EAD) response [2] | Structure (SMILES) | cTnT positive rate (cardiomyocyte purity) ([1]; after the first serial subculture, before culturing 90 to 96%) [%] | cTnT positive rate (cardiomyocyte purity) ([1]; after the second serial subculture) [%] | concentration of CHIR99021 at which the cardiomyocyte proliferation rate was the highest ([1]; first and second serial subculture, tested 1, 2, 3, 5 μM) [µM] | cardiomyocyte proliferation rate ([1]; first serial subculture (2 weeks), seeding density 2.0×10^5 cells/cm^2, CHIR99021 3 μM) [fold] | proliferation rate compared with no CHIR99021 ([1]; first serial subculture) | total cardiomyocyte proliferation ([1]; in total after the second serial subculture, CHIR99021 3 μM) [fold] | total cardiomyocyte proliferation ([1]; in total after the third to fourth serial subcultures, CHIR99021 3 μM) [fold] | proliferation rate compared with no CHIR99021 ([1]; second serial subculture) |
| --- | --- | --- | --- | --- | --- | --- | --- | --- | --- |
| – | Cc1cnc(-c2cnc(NCCNc3ccc(C#N)cn3)nc2-c2ccc(Cl)cc2Cl)[nH]1 [CHIR99021, 6-[2-[[4-(2,4-dichlorophenyl)-5-(5-methyl-1H-imidazol-2-yl)pyrimidin-2-yl]amino]ethylamino]pyridine-3-carbonitrile] | ≥ 90 | ≥ 90 | 3 | 4.5 | higher proliferation rates | 12.6 | 22.7 | higher proliferation rates |
| detected | CC(C)(C)c1ccc(C(O)CCCN2CCC(C(O)(c3ccccc3)c3ccccc3)CC2)cc1 (stereo not drawn) [terfenadine] | – | – | – | – | – | – | – | – |

— patent US20230242885A1, “METHOD OF PRODUCING CARDIOMYOCYTE POPULATION, METHOD OF PROLIFERATING CARDIOMYOCYTES, CARDIOMYOCYTE POPULATION, TRANSPLANTATION MATERIAL, MULTINUCLEATED CARDIOMYOCYTE, AND KIT FOR PROLIFERATING CARDIOMYOCYTES” (Myoridge Co. Ltd., priority 2020, published 2023)
